From patent publication US9006174B2 (priority 2009, dated 2015)
Ends that are not written are not given here.

Each substance was assayed on cRBCs (assay: Haemolytic activity, chicken erythrocytes). Conditions: 1 h at 37° C.
Assay type: cell-based

Row | Substance | Toxicity Haemolysis (cRBCs)
1 | RFGRFLRKIRRFRPKVTITIQGSARF-NH2 [CMAP26-NH2, reference compound] | +/− (>25% dead cells)
2 | RFGRFLRKIRRFRPKVTITIQ [CMAP1-21] | − (<25% dead cells)
3 | RFGRFLRKIRRFRPK [CMAP(1-15), RFGRFLRKIRRFRPK] | − (<25% dead cells)

What follows are substances tested on hRBCs (assay: not given). Conditions: human erythrocytes, 1 h at 37° C.

Row | Substance | Toxicity Haemolysis (hRBCs)
4 | RLGRFLRKIRRFRPK [CMAP(1-15) (F2→L), RLGRFLRKIRRFRPK] | − (<25% dead cells)
5 | RFGRFLRKIR [CMAP(l-l0), RFGRFLRKIR] | −− (<5% dead cells)
6 | RWGRFLRKIRRFRPK [CMAP(1-15) (F2→W), RWGRFLRKIRRFRPK] | −− (<5% dead cells)
7 | RFGRFLRKIRRFR [CMAP(1-13), RFGRFLRKIRRFR] | −− (<5% dead cells)
8 | RFGRWLRKIRRFRPK [CMAP(1-15) (F5→W), RFGRWLRKIRRFRPK] | −− (<5% dead cells)
9 | RFGRFLRKIRRF [CMAP(1-12), RFGRFLRKIRRF] | −− (<5% dead cells)
10 | RFLRKIRRFRPK [CMAP(4-15), RFLRKIRRFRPK] | +/− (>25% dead cells)
11 | FGRFLRKIRRFRPK [CMAP(2-15), FGRFLRKIRRFRPK] | −− (<5% dead cells)
12 | RFGRFLRKIRRFRPK [CMAP(1-15), RFGRFLRKIRRFRPK] | −− (<5% dead cells)
13 | RFGRFLRKIRRFRPKVTITIQGSARF [CMAP26] | ++ (>75% dead cells)
14 | RFGRFLRKIRRFRPKVTITIQGSARFG [CMAP27, reference compound] | − (<25% dead cells)
15 | RFGRFLRKIRR [CMAP(l-ll), RFGRFLRKIRR] | +/− (>25% dead cells)
16 | RWGRWLRKIRRWRPK [CMAP(1-15) (3xF→W), RWGRWLRKIRRWRPK] | − (<25% dead cells)
17 | RFGRLLRKIRRFRPK [CMAP(1-15) (F5→L), RFGRLLRKIRRFRPK] | − (<25% dead cells)
18 | FLRKIRRFRPK [CMAP(5-15), FLRKIRRFRPK] | − (<25% dead cells)
19 | GRFLRKIRRFRPK [CMAP(3-15), GRFLRKIRRFRPK] | −− (<5% dead cells)
20 | RLGRLLRKIRRLRPK [CMAP(1-15) (3xF→L), RLGRLLRKIRRLRPK] | − (<25% dead cells)
